“Also recorded” adds a separate entry of the source.
Key:
DC and MΦ = assay: Cytotoxicity: PI test and annexin V test by FACS; format: cell-based; conditions: 10 to 100 µM, 48 h incubation, 24 h in Figure 3 legend
Method: (§1) • Figure 1. Antagonistic activity of compounds Ia, Ic and Id on lipid A-stimulated cytokine production in BMDC, BMØ and D1 cells. TNFα production was measured in the supernatants 24 h later. From the right: lipid A (0.5µM), cells treated with lipid A alone; DMSO: cells incubated in the presence of complete medium plus DMSO; inhibitor 50 µM, cells treated only with monosaccharides Ia, Ic and Id; other columns, lipid A + compounds […] at increasing doses. The data represent means and standard deviations of triplicate wells. This is a representative of three independent experiments. *, p < 0.05; **, p < 0.01; ***, p< 0.001. • Figure 2. TLR-4 selectivity of monosaccharide Id. […] IL-1β was measured in the supernatants by ELISA. […] Lower panels, TNFα production measured by ELISA 24 h after stimulation with CpG (selective for TLR-9) or PAM3Cys-SK4 (selective for TLR-2) in the presence of compound Id. […] The cells were then analyzed by FACS for the presence of annexin V and propidium iodide (PI) double positive cells. […] NF-kB activation was evaluated in the nuclear extract 2 h later and expressed as optical density (OD) at 450 nm. […] Effect of different doses of compound Id on carrageenan induced edema in mice measured 4h after the exposure and expressed as difference between the paw volume of treated paw versus the contralateral paw. […]

TLR2 = assay: TNFα production after stimulation with Pam3Cys-SK4 (TLR2 selectivity); format: cell-based, Mouse; conditions: stimulation with Pam3Cys-SK4, specific for TLR2
Method: as §1

neuropathic mice = assay: Neuropathic pain after sciatic nerve ligation (plantar test, Von Frey test); format: in vivo, mice C57BL/6J; conditions: i.p. 5 mg/kg once a day for one week starting the day after surgery
Method: Male mice C57BL/6J were anesthetized with sodium pentobarbital (65 mg/kg, i.p.) and submitted to surgery to induce neuropathic pain. […] Sham animals (sciatic exposure without ligation) were used as controls. The animal pain response was monitored before surgery, on day 7 (24 h after the last administration). Compound (Id) was administered i.p. at 5 mg/kg once a day starting the day after the surgery. Heat hypersensitivity was tested according to the Hargreaves' procedure using the plantar test (Ugo Basile, Varese, Italy). Mechanical allodynia was measured using the Von Frey test.

BMΦ and D1 cells = assay: Lipid A-induced IL-1β production (ELISA); format: cell-based, Mouse; conditions: lipid A (0.5 µM) stimulation, effect proportional to concentration
Method: as §1

human TLR-4A = target: T1, human TLR-4A (Homo sapiens, UniProt O00206+Q9Y6Y9); assay: NF-kB activation in HEK-293 cells transfected with TLR-4, stimulated with lipid A; format: cell-based; conditions: TLR-4-transfected HEK 293; lipid A (0.5 µM) after pre-exposure to compound; measured 2 h later
T1 construct: host or cells: HEK-293 (HEK-293-hTLR-4A)
T1 sequence (O00206 24-839): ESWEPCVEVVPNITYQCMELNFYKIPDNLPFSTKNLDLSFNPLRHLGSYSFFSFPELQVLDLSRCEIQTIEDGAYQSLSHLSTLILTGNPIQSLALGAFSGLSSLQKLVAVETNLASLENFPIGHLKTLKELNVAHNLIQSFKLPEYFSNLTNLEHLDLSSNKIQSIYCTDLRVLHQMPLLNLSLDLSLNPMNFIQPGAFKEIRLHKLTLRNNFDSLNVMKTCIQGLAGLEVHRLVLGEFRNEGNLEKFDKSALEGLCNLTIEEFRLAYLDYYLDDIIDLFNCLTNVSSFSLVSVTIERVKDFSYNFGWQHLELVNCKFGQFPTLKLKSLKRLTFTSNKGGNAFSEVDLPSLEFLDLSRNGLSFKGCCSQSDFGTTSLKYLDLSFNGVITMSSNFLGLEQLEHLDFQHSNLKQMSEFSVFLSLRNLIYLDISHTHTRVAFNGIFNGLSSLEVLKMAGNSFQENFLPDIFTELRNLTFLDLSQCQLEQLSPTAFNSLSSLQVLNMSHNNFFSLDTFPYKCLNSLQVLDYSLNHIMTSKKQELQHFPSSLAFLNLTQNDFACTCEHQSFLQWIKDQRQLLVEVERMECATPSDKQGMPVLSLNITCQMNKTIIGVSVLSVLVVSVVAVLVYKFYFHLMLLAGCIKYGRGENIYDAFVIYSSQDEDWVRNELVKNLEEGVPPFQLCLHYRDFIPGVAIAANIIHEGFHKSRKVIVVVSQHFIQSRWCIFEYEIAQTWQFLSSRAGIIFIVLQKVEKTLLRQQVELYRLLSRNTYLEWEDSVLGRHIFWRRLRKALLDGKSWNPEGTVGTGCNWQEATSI
T1 sequence (Q9Y6Y9 17-160 limits assumed): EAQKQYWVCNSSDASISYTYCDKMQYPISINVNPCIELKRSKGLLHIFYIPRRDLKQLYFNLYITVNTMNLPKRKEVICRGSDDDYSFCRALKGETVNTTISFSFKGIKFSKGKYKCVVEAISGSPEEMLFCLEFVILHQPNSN
Method: as §1

## CCCCCCCCCCCCCCO[C@H]1[C@@H](OC)O[C@H](C[N+](C)(C)C2CCCC2)[C@@H](O)[C@@H]1OCCCCCCCCCCCCCC [Compound Id, methyl 6-deoxy-6-N,N',N"-dimethylcyclopentylammonium-2,3-di-O-tetradecyl-α-D-glucopyranoside]
DC and MΦ
  percent of dead cells: does not induce death of MΦ and DC; also recorded: Neither DC nor MΦ showed an appreciable percent of dead cells
TLR2
  TNFα production: not inhibited
Neuropathic mice; Von Frey test
  mechanical allodynia: significant relief
Neuropathic mice; plantar test
  thermal hyperalgesia: significant relief
BMΦ and D1 cells
  IL-1β synthesis: inhibited
Human TLR-4A
  NF-kB activation: able to significantly counteract the effect of lipid A
